According to the NIST ThermoML archive (doi:10.1021/je1002237):

Assay: xn = mol fraction of the nth substance listed
Conditions: 101 kPa, Liquid

ClCCl [dichloromethane] + CCOS(=O)(=O)[O-].CCn1cc[n+](C)c1
mass density [kg/m3]
Conditions | 278.15 K | 283.15 K | 288.15 K | 293.15 K | 298.15 K | 303.15 K | 308.15 K
x1 = 0.0375 | 1252.39 | 1248.82 | 1245.38 | 1241.96 | 1238.55 | 1235.13 | 1231.72
x1 = 0.0731 | 1254.22 | 1250.64 | 1247.19 | 1243.72 | 1240.27 | 1236.81 | 1233.36
x1 = 0.1117 | 1255.78 | 1252.22 | 1248.72 | 1245.22 | 1241.73 | 1238.24 | 1234.76
x1 = 0.1664 | 1258.85 | 1255.31 | 1251.75 | 1248.14 | 1244.63 | 1241.08 | 1237.55
x1 = 0.2488 | 1263.74 | 1260.06 | 1256.38 | 1252.7 | 1249.03 | 1245.37 | 1241.71
x1 = 0.3308 | 1268.9 | 1265.09 | 1261.28 | 1257.48 | 1253.69 | 1249.9 | 1246.13
x1 = 0.4023 | 1274.69 | 1270.74 | 1266.78 | 1262.82 | 1258.9 | 1254.97 | 1251.05
x1 = 0.4624 | 1279.33 | 1275.26 | 1271.18 | 1267.11 | 1263.05 | 1259 | 1254.96
x1 = 0.5776 | 1290.69 | 1286.28 | 1281.87 | 1277.47 | 1273.07 | 1268.69 | 1264.32
x1 = 0.6593 | 1299.95 | 1295.23 | 1290.51 | 1285.8 | 1281.09 | 1276.39 | 1271.69
x1 = 0.7684 | 1315.91 | 1310.52 | 1305.14 | 1299.77 | 1294.38 | 1289 | 1283.61
x1 = 0.8377 | 1327.28 | 1321.28 | 1315.26 | 1309.25 | 1303.21 | 1297.16 | 1291.11
x1 = 0.8856 | 1335.58 | 1328.97 | 1322.35 | 1315.72 | 1309.05 | 1302.36 | 1295.65
x1 = 0.9207 | 1341.3 | 1334.16 | 1326.99 | 1319.81 | 1312.58 | 1305.32 | 1298.03
x1 = 0.9475 | 1345.71 | 1338.05 | 1330.35 | 1322.64 | 1314.87 | 1307.06 | 1299.21
x1 = 0.9687 | 1349.06 | 1340.91 | 1332.71 | 1324.48 | 1316.18 | 1307.85 | 1299.46
x1 = 0.9858 | 1351.32 | 1342.72 | 1334.07 | 1325.38 | 1316.61 | 1307.8 | 1298.92
x1 = 1 | 1352.84 | 1343.8 | 1334.71 | 1325.58 | 1316.34 | 1307.06 | 1297.69

CCO [ethanol] + CCOS(=O)(=O)[O-].CCn1cc[n+](C)c1
x1 = 1
Conditions | mass density [kg/m3]
278.15 K | 802.12
283.15 K | 797.89
288.15 K | 793.63
293.15 K | 789.37
298.15 K | 785.08
303.15 K | 780.77
308.15 K | 776.42

CO [methanol] + CCOS(=O)(=O)[O-].CCn1cc[n+](C)c1
x1 = 1
Conditions | mass density [kg/m3]
278.15 K | 805.53
283.15 K | 800.85
288.15 K | 796.16
293.15 K | 791.49
298.15 K | 786.77
303.15 K | 782.05
308.15 K | 777.3

O [water] + CCOS(=O)(=O)[O-].CCn1cc[n+](C)c1
x1 = 1
Conditions | mass density [kg/m3]
278.15 K | 999.96
283.15 K | 999.69
